Experiments:
AMPA type receptors = assay: 3H-AMPA Binding (Test 1); conditions: displacement of 50% of the specific binding of 3H-AMPA (5 nM); rat cerebral cortical membrane homogenate, 0° C., 30 min, pH 7.1
Description: (§1) The pharmacological properties of the compounds of the present invention can be illustrated by determining their capability for displacing radioactively labelled 2-amino-3-hydroxy-5-methyl-4-isoxazolepropionic acid (AMPA) from the AMPA type receptors.
The displacement activity of the compounds may be shown by determining the IC50 value which represents the concentration (μM) which causes a displacement of 50% of the specific binding of ^3 H-AMPA.
^3 H-AMPA Binding (Test 1)
500 μl of thawed rat cerebral cortical membrane homogenate in Tris-HCl (30 mM), CaCl2 (2.5 mM) and KSCN (100 mM) pH 7.1 were incubated at 0° C. for 30 min. with 25 μl ^3 H-AMPA (5 nM final concentration) and the test compound and buffer. Nonspecific binding was determined by incubation with L-glutamic acid (600 μM final concentration). The binding reaction was terminated by adding 5 ml of ice-cold buffer followed by filtration through Whatman GF/C glass fibre filters and 2×5 ml wash with ice-cold buffer. Bound radioactivity was measured by scintillation counting. IC50 was determined by Hill analysis of at least four concentrations of test compound.

[1] = test system: quisqualic acid stimulated spreading depression in chicken retina; assay: Spreading Depression (Test 2): quisqualic acid stimulated spreading depression in chicken retina; assay type: cell-based; conditions: Gallus gallus, 0.25 h; 50% maximal inhibition of quisqualate (1 μg/ml) stimulated spreading depression in chicken retina; 15 min incubation with test compound, 26° C.
Description: as §1
The antagonism is measured by determining the IC50 value which represents the concentration which produces a 50% maximal inhibition of quisqualic acid stimulated spreading depression in chicken retina.
Spreading Depression (Test 2)
Chicks (3-10 days old) were decapitated, the eyes enucleated and sectioned along the equatorial plane. […]
The eyes were initially incubated in normal P.S.S. for 15-30 min. and then transferred to P.S.S. containing quisqualate (1 μg/ml). […] The time taken for an S.D. to start in each eye was measured.
After a further 15 min. of incubation in normal P.S.S. the eyes were transferred to normal P.S.S. containing the test compound and incubated for 15 min. […] The time taken for an S.D. to start in each eye was measured again. The eyes were then placed back in normal P.S.S. and after 15 min. the time taken for S.D. to start was measured again, in order to assess the degree of recovery from any drug effects. […]

For `Cc1cn(-c2cc3c(cc2C(F)(F)F)[nH]c(=O)c2nnc(CP(=O)(O)O)n23)c(-c2ccccc2)n1` [Example 2, 8-(4-Methyl-2-phenyl-1H-imidazol-1-yl)-1-phosphonomethyl-7-trifluoromethyl[1,2,4]triazolo[4,3-a]quinoxalin-4(5H)-one], the IC50 (AMPA type receptors) was 0.39 µM and the IC50 [1] was 0.4 µM.

Source: patent publication US6001832A, “[1,2,4]triazolo[4,3-a]quinoxalinone derivatives, their preparation and use” (Novo Nordiskals, priority 1994, dated 1999)
